Where “and” joins values, the source holds several entries; their conditions need not be identical. Equal entries are not always repeated. Toxic doses and inconclusive results are not listed. Rule for the calls: active = survival T/C of 150% or more; inactive = T/C below 125% in these data.
Tested on: CD2F1 mice, L1210 leukemia ip, survival T/C
Assay: NCI In Vivo Anticancer Drug Screen. Data for tumor model L1210 Leukemia (intraperitoneal) in CD2F1 (CDF1) mice
Conditions: higher = longer survival
Summary of the method: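 Transplantable tumor in mice; compound-treated vs vehicle-treated groups. Read-out = treated/control ratio of the measured endpoint.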

[1] = endpoint: mean survival time, dose: 100.0 mg/kg/injection, schedule: Q01DX009 (ip), vehicle: saline with Tween-80
[2] = endpoint: mean survival time, dose: 200.0 mg/kg/injection, schedule: Q01DX009 (ip), vehicle: saline with Tween-80
[3] = endpoint: mean survival time, dose: 400.0 mg/kg/injection, schedule: Q01DX009 (ip), vehicle: saline with Tween-80
[4] = endpoint: mean survival time, dose: 50.0 mg/kg/injection, schedule: Q01DX009 (ip), vehicle: saline with Tween-80
[5] = endpoint: mean survival time, dose: 25.0 mg/kg/injection, schedule: Q01DX009 (ip), vehicle: saline
[6] = endpoint: mean survival time, dose: 50.0 mg/kg/injection, schedule: Q01DX009 (ip), vehicle: saline
[7] = endpoint: mean survival time, dose: 100.0 mg/kg/injection, schedule: Q01DX009 (ip), vehicle: saline
[8] = endpoint: mean survival time, dose: 100.0 mg/kg/injection, schedule: Q01DX001 (ip), vehicle: saline
[9] = endpoint: mean survival time, dose: 200.0 mg/kg/injection, schedule: Q01DX001 (ip), vehicle: saline
[10] = endpoint: mean survival time, dose: 400.0 mg/kg/injection, schedule: Q01DX001 (ip), vehicle: saline
[11] = endpoint: mean survival time, dose: 100.0 mg/kg/injection, schedule: Q04DX003 (ip), vehicle: saline with Tween-80
[12] = endpoint: mean survival time, dose: 200.0 mg/kg/injection, schedule: Q04DX003 (ip), vehicle: saline with Tween-80
[13] = endpoint: mean survival time, dose: 400.0 mg/kg/injection, schedule: Q04DX003 (ip), vehicle: saline with Tween-80
[14] = endpoint: mean survival time, dose: 100.0 mg/kg/injection, schedule: Q04DX003 (ip), vehicle: saline
[15] = endpoint: mean survival time, dose: 200.0 mg/kg/injection, schedule: Q04DX003 (ip), vehicle: saline
[16] = endpoint: mean survival time, dose: 400.0 mg/kg/injection, schedule: Q04DX003 (ip), vehicle: saline

Measured: T/C

CC(O)C1OC(n2cnc3c(=O)[nH]c(N)nc32)C(O)C1O (stereo unspecified)
inactive: endpoint: mean survival time, dose: 12.5 mg/kg/injection, schedule: Q01DX005 (ip), vehicle: distilled water + Tween-80 101 % of control | endpoint: mean survival time, dose: 25.0 mg/kg/injection, schedule: Q01DX005 (ip), vehicle: distilled water + Tween-80 100 % of control | endpoint: mean survival time, dose: 50.0 mg/kg/injection, schedule: Q01DX005 (ip), vehicle: distilled water + Tween-80 101 % of control | endpoint: mean survival time, dose: 100.0 mg/kg/injection, schedule: Q01DX005 (ip), vehicle: distilled water + Tween-80 97 % of control | endpoint: mean survival time, dose: 200.0 mg/kg/injection, schedule: Q01DX005 (ip), vehicle: distilled water + Tween-80 97 % of control | endpoint: median survival time, dose: 12.5 mg/kg/injection, schedule: Q01DX005 (ip), vehicle: distilled water + Tween-80 112 % of control | endpoint: median survival time, dose: 20.0 mg/kg/injection, schedule: Q01DX005 (ip), vehicle: distilled water + Tween-80 108 % of control | endpoint: median survival time, dose: 50.0 mg/kg/injection, schedule: Q01DX005 (ip), vehicle: distilled water + Tween-80 112 % of control | endpoint: median survival time, dose: 100.0 mg/kg/injection, schedule: Q01DX005 (ip), vehicle: distilled water + Tween-80 104 % of control | endpoint: median survival time, dose: 200.0 mg/kg/injection, schedule: Q01DX005 (ip), vehicle: distilled water + Tween-80 96 % of control

CCOCc1ccc(C(=O)O)cc1
inactive: [1] 96 % of control | [2] 101 % of control | [3] 101 % of control

c1cnc2c(c1)CCCC2
inactive: endpoint: mean survival time, dose: 12.5 mg/kg/injection, schedule: Q01DX009 (ip), vehicle: saline with Tween-80 95 % of control | endpoint: mean survival time, dose: 25.0 mg/kg/injection, schedule: Q01DX009 (ip), vehicle: saline with Tween-80 91 % of control | [4] 87 % of control

CC(=O)N/C(=C\c1ccccc1)C(N)=O
inactive: [1] 103 % of control | [2] 95 % of control | [3] 100 % of control

CC[NH-].[Cl][Pt+2][Cl].[NH2-]
inactive: endpoint: mean survival time, dose: 1.56 mg/kg/injection, schedule: Q04DX003 (ip), vehicle: water 118 % of control | endpoint: mean survival time, dose: 3.13 mg/kg/injection, schedule: Q04DX003 (ip), vehicle: distilled water + Tween-80 119 % of control | endpoint: mean survival time, dose: 6.25 mg/kg/injection, schedule: Q04DX003 (ip), vehicle: water 124 % of control | endpoint: mean survival time, dose: 25.0 mg/kg/injection, schedule: Q04DX003 (ip), vehicle: distilled water + Tween-80 98 % of control

CC#CC(C)=O
inactive: [5] 93 % of control | [6] 96 % of control | [7] 97 % of control

CSc1nc(N)c2ncn(C3C=CC(O)CO3)c2n1 (stereo unspecified)
inactive: endpoint: mean survival time, dose: 50.0 mg/kg/injection, schedule: Q01DX001 (ip), vehicle: saline 106 % of control | [8] 106 % of control | [9] 100 % of control | [10] 116 % of control

CC1=CC(C)(C(Cl)Cl)C=CC1=O (stereo unspecified)
inactive: endpoint: mean survival time, dose: 75.0 mg/kg/injection, schedule: Q01DX009 (ip), vehicle: saline with Tween-80 101 % of control | [11] 102 % of control | endpoint: mean survival time, dose: 150.0 mg/kg/injection, schedule: Q01DX009 (ip), vehicle: saline with Tween-80 101 % of control | [12] 95 % of control | endpoint: mean survival time, dose: 300.0 mg/kg/injection, schedule: Q01DX009 (ip), vehicle: saline with Tween-80 98 % of control | [13] 93 % of control

C=CCNC(=O)C[n+]1cccc(C(=O)Nc2ccccc2)c1
inactive: [11] 97 % of control

O=C1OC(=O)c2c1ccc1c(O)cccc21
inactive: endpoint: mean survival time, dose: 100.0 mg/kg/injection, schedule: Q01DX001 (ip), vehicle: saline with Tween-80 101 % of control | endpoint: mean survival time, dose: 200.0 mg/kg/injection, schedule: Q01DX001 (ip), vehicle: saline with Tween-80 90 % of control | endpoint: mean survival time, dose: 400.0 mg/kg/injection, schedule: Q01DX001 (ip), vehicle: saline with Tween-80 108 % of control

CCOC(=O)C1OC12c1cccc3cccc(c13)C21OC1C(=O)OCC (stereo unspecified)
inactive: [11] 97 % of control | [12] 95 % of control | [13] 91 % of control

C=CCn1nnnc1N
inactive: [14] 101 % of control | [15] 103 % of control | [16] 101 % of control

CC(C)(C)C1CCCCC1
inactive: endpoint: mean survival time, dose: 12.5 mg/kg/injection, schedule: Q01DX009 (ip), vehicle: Klucel (hydroxypropylcellulose) (HPC) 90 % of control and 101 % of control | endpoint: mean survival time, dose: 25.0 mg/kg/injection, schedule: Q01DX009 (ip), vehicle: Klucel (hydroxypropylcellulose) (HPC) 90 % of control and 98 % of control | endpoint: mean survival time, dose: 50.0 mg/kg/injection, schedule: Q01DX009 (ip), vehicle: Klucel (hydroxypropylcellulose) (HPC) 93 % of control and 101 % of control | endpoint: mean survival time, dose: 100.0 mg/kg/injection, schedule: Q01DX009 (ip), vehicle: Klucel (hydroxypropylcellulose) (HPC) 88 % of control and 98 % of control | endpoint: mean survival time, dose: 200.0 mg/kg/injection, schedule: Q01DX009 (ip), vehicle: Klucel (hydroxypropylcellulose) (HPC) 91 % of control and 98 % of control | endpoint: mean survival time, dose: 400.0 mg/kg/injection, schedule: Q01DX009 (ip), vehicle: Klucel (hydroxypropylcellulose) (HPC) 93 % of control

O=S1(=O)Cc2ccc(Br)cc2C1
inactive: [1] 103 % of control | [11] 90 % of control | [2] 101 % of control | [12] 91 % of control | [3] 97 % of control | [13] 90 % of control

COC(=O)C12C=CC(C1)n1c(=O)n(-c3ccccc3)c(=O)n12 (stereo unspecified)
inactive: [1] 98 % of control | [2] 104 % of control | [3] 96 % of control

Cc1c(Br)c(=O)[nH]c2ccccc12
inactive: [1] 96 % of control | [11] 101 % of control | [2] 96 % of control | [12] 98 % of control | [3] 94 % of control | [13] 101 % of control

c1ccc(Cn2cccc2N=Nc2ccccc2)cc1
inactive: endpoint: mean survival time, dose: 100.0 mg/kg/injection, schedule: Q01DX001 (ip), vehicle: other 98 % of control | endpoint: mean survival time, dose: 200.0 mg/kg/injection, schedule: Q01DX001 (ip), vehicle: other 101 % of control | endpoint: mean survival time, dose: 400.0 mg/kg/injection, schedule: Q01DX001 (ip), vehicle: other 98 % of control

CCCC1(CCC)NC(=O)NC1=O
inactive: endpoint: mean survival time, dose: 100.0 mg/kg/injection, schedule: Q04DX003 (ip), vehicle: other 102 % of control | endpoint: mean survival time, dose: 200.0 mg/kg/injection, schedule: Q04DX003 (ip), vehicle: other 102 % of control

CCOc1ccccc1C(=O)OC(CN(CC)CC)c1ccccc1 (stereo unspecified)
inactive: endpoint: mean survival time, dose: 100.0 mg/kg/injection, schedule: Q04DX002 (ip), vehicle: saline 95 % of control | endpoint: mean survival time, dose: 200.0 mg/kg/injection, schedule: Q04DX002 (ip), vehicle: saline 95 % of control

Cc1ccccc1N1OS(=O)(=O)CC1(C#N)c1ccccc1 (stereo unspecified)
inactive: [8] 106 % of control | [14] 98 % of control | [9] 100 % of control | [15] 101 % of control | [10] 102 % of control | [16] 96 % of control

C=CCN(CC=C)CCSC(=S)NCCOC
inactive: [4] 97 % of control | [1] 113 % of control | [2] 97 % of control

CCOC(=O)CCC(NC(=O)C(CSC(c1ccccc1)(c1ccccc1)c1ccccc1)NC(c1ccccc1)(c1ccccc1)c1ccccc1)C(=O)OCC (stereo unspecified)
inactive: [5] 93 % of control | [6] 100 % of control | [7] 96 % of control | endpoint: mean survival time, dose: 200.0 mg/kg/injection, schedule: Q01DX009 (ip), vehicle: saline 96 % of control | endpoint: mean survival time, dose: 400.0 mg/kg/injection, schedule: Q01DX009 (ip), vehicle: saline 96 % of control

Clc1ncc2cnccn12
inactive: [1] 101 % of control

COc1cc(OC)c(NC(=O)Nc2ccc(CCO)cc2)cc1Cl
inactive: [4] 93 % of control | [1] 86 % of control | [2] 93 % of control

C=CCON(C)c1ccccc1
inactive: [1] 94 % of control | [2] 90 % of control | [3] 99 % of control

CC(=O)Nc1ccc2oc(=O)ccc2c1
inactive: [11] 101 % of control | [12] 101 % of control | [13] 101 % of control

Cc1ccc(S(=O)(=O)O/N=C2/CCC(C)(C)c3ccccc32)cc1
inactive: [1] 102 % of control | [11] 102 % of control | [2] 102 % of control | [12] 103 % of control | [3] 94 % of control | [13] 96 % of control

CCN(CC)Cc1cc(O)ccc1NCCCNc1ccnc2cc(Cl)ccc12
inactive: [11] 96 % of control

Cc1ccc(C(O)S(=O)(=O)O)cc1 (stereo unspecified)
inactive: [11] 119 % of control | [12] 103 % of control | [13] 115 % of control

NC1CCCCCCC1O (stereo unspecified)
inactive: endpoint: mean survival time, dose: 5.0 mg/kg/injection, schedule: Q01DX001 (ip), vehicle: saline sonified 114 % of control | endpoint: mean survival time, dose: 10.0 mg/kg/injection, schedule: Q01DX001 (ip), vehicle: saline sonified 92 % of control | endpoint: mean survival time, dose: 20.0 mg/kg/injection, schedule: Q01DX001 (ip), vehicle: saline sonified 100 % of control
